US10766914B2, “DNA alkylating agents” (OBI PHARMA, INC., priority 2015, dated 2020)

What was measured:
[1] = tested on: H460 cells; experiment: Proliferation assay in H460 cells (2 hr exposure, AlamarBlue); assay type: cell-based, human; conditions: Homo sapiens, NCI-H460, 2 hrs exposure, wash, 70 hrs growth, read-out: IC 50 in proliferation assay in H460 cells
Summary of the method: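 H460 cells seeded at 4×10^3/well, grown 24 h, then exposed to compound for 2 h at 37 °C. Drug was washed off and cells were regrown 70 h in fresh medium. Viable cells were read by AlamarBlue, and IC50 was taken as the concentration giving 50% growth inhibition.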

[2] = Example 4-G body weight change, H460 xenograft study; assay type: in vivo, female nude mice (nu/nu); conditions: ip, Q7D × 3
Description: (§1) Cells were mixed with Matrigel (50% with exception for 30% in the H460) and 0.2 ml per mouse were subcutaneously implanted to the flank area of the animals. When tumor size reached 100-150 250 mm3, mice were randomized into experimental or vehicle groups with 10 mice/group and treatment was started (Day 1). The tested compounds were formulated in 5% DMSO in D5W. The regimens employed in the examples include IP, QD×5/wk (5 days on, 2 days off) as one cycle, for a total of 2 cycles; IP, once; IP, weekly for total 3 weeks; and IV, weekly for 3 weeks. Tumor growth and body weight were measured twice a week. Tumor volume was calculated as (length×width2)/2. Drug efficacy was assessed as Tumor Growth Inhibition (TGI) and Tumor Growth Delay (TGD). TGI was defined as (1−ΔT/ΔC)×100, where ΔT/ΔC presented the ratio of the change in mean (or median, if variation within the group was relatively large) tumor volume of the treated group and of the control group. TGD was calculated as the extra days for the treated tumor to reach 500 mm3 or 1000 mm3 as compared to the control group. Animals were culled when individual tumor size reached over 2000 mm3 or mean tumor volume exceeded 1000 mm3 in the group. Data are expressed as the mean±SEM. One-way analysis of variance with Dunnett post comparison test (GraphPad Prism 4) or two-tailed student's t-test were used for analysis. A P level <0.05 was considered statistically significant.
(§2) The compounds TH-3040 and TH-3045 were tested in a H460 model. The compounds were dosed as follows. A dose-dependent TH-3040 or TH-3045 was given IP weekly for 3 weeks, from 5 to 45 mg/kg starting at 100 mm^3 tumors on day 1 (10 animals per group average tumor volume). The antitumor effects and the safety of administration are graphically illustrated below.

[3] = tested on: H460 NSCLC xenograft; experiment: Example 4-G antitumor efficacy, ectopic H460 NSCLC xenograft model; assay type: in vivo, female nude mice (nu/nu); conditions: ip, Q7D × 3
Excerpt: (§3) Specific pathogen-free homozygous female nude mice (nu/nu, Charles River Laboratories) were used. Mice were given food and water ad libitum and housed in microisolator cages. Four to six week old animals were identified by microchips (Locus Technology, Manchester, Md., USA) at the time of the experiments. All animal studies were approved by the Institutional Animal Care and Use Committee at Threshold Pharmaceuticals, Inc.
(§4) All cell lines were from the American Type Culture Collection (ATCC, Rockville, Md., USA).
as §1, §2

[4] = tested on: H460 NSCLC xenograft; experiment: Example 4-I antitumor efficacy, ectopic H460 NSCLC xenograft model; assay type: in vivo, female nude mice (nu/nu); conditions: 10 mg/kg, iv, Q7D × 3
Excerpt: as §3, §4, §1
(§5) The compound TH-2870 was tested in a H460 model. The compound was dosed follows. 1.5, 5 or 15 mg/kg, IV, weekly for 3 weeks at 250 mm^3 tumors on day 1 (10 animals per group average tumor volume), comparing with docetaxel. The antitumor effects and the safety of administration are graphically illustrated below.

[5] = Example 4-I body weight change, H460 xenograft study; assay type: in vivo, female nude mice (nu/nu); conditions: 10 mg/kg, iv, Q7D × 3
Description: as §1, §5

[6] = tested on: H460 non-small cell lung cancer xenograft tumor; experiment: Example 4-A antitumor efficacy, ectopic H460 NSCLC xenograft model; assay type: in vivo, female nude mice (nu/nu); conditions: 60 mg/kg ip Q3D × 5; H460
Excerpt: as §3, §4, §1
Compounds provided herein were tested in vivo human tumor xenograft models and compared to standard chemotherapeutic agents such as gemcitabine, nab-paclitaxel. […] The compound was dosed as follows: daily IP dosing: 5 doses then 2 days off then 5 more doses starting at 100 mm^3 tumors on day 1 (10 animals per group median tumor volume). It is contemplated that in some embodiments, the compounds provided herein are activated by human and not by mouse enzymes. The antitumor effects and the safety of administration are graphically illustrated in FIGS. 3-20 below.

[7] = Example 4-A body weight change, H460 xenograft study; assay type: in vivo, female nude mice (nu/nu); conditions: 60 mg/kg ip Q3D × 5
Description: as §1, with “A P level <0.05 was considered statistically significant.” left out

Compound: C[C@@H](OP(=O)(N1CC1)N1CC1)c1ccc([N+](=O)[O-])c(Oc2ccc(-c3ccccc3)cc2)c1 [Compound 3045]
- IC50 [1]: 4 nM
- Max BW loss ([2]; 5 mpk): 0.0%
- Max BW loss ([2]; 15 mpk): 2.8%
- Max BW loss ([2]; 45 mpk): 2.4%
- TGD 500 ([3]; 5 mpk): 48 days
- TGI ([3]; 5 mpk): 104.0%
- TGD 500 ([3]; 15 mpk): 70 days
- TGI ([3]; 15 mpk): 104.8%
- TGD 500 ([3]; 45 mpk): 86 days
- TGI ([3]; 45 mpk): 106.3%

Compound: CC(=O)O[C@@]12CO[C@@H]1C[C@H](O)[C@@]1(C)C(=O)[C@H](O)C3=C(C)[C@@H](OC(=O)[C@H](O)[C@@H](NC(=O)OC(C)(C)C)c4ccccc4)C[C@@](O)([C@@H](OC(=O)c4ccccc4)[C@H]21)C3(C)C [Doectaxel, docetaxel, reference compound]
- TGD500, Days (vs. vehicle) ([4]; H460): 6 days
- TGD1000, Days (vs. vehicle) ([4]; H460): 9 days
- TGI ([4]; H460, 250 mm3 tumors on day 1): 51.3%
- Max. BW loss % [5]: 12.4%

Compound: Nc1ccn([C@@H]2O[C@H](CO)[C@@H](O)C2(F)F)c(=O)n1 [GEM, gemcitabine, reference compound]
- TGD 500 [6]: 7 days
- TGD 1000 [6]: 7 days
- TGI [6]: 42.7%
- Max. BW loss % [7]: 4.9%
